Results from ChEMBL document CHEMBL1131344, “The synthesis of novel matrix metalloproteinase inhibitors employing the Ireland-Claisen rearrangement” (Bioorg Med Chem Lett, 1998).

Key:
[1] = Maximum concentration value was evaluated for high sustained blood levels in rat after 30 min of administration; format: ADME, organism-based
Rattus norvegicus [2] = species on record: Rattus norvegicus; assay: Compound was tested for area under curve in rat; format: ADME, organism-based; set-up: concentration or dose not given beside the values; conditions: in vivo
[3] = target: T1, Matrilysin (Homo sapiens) (UniProt P09237); assay: Inhibition of matrix metalloprotease-7 (Matrilysin)
T1 sequence (whole entry): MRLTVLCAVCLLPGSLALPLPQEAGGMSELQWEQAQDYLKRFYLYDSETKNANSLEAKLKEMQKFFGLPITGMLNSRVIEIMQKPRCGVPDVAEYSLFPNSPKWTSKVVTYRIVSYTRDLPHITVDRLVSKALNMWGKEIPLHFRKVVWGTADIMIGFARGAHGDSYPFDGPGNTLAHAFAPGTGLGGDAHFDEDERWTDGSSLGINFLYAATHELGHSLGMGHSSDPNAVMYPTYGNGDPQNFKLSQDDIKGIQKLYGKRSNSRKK

[4] = target: T2, Interstitial collagenase (Homo sapiens) (UniProt P03956); assay: Inhibition of matrix metalloprotease-1 (HFC)
T2 sequence (whole entry): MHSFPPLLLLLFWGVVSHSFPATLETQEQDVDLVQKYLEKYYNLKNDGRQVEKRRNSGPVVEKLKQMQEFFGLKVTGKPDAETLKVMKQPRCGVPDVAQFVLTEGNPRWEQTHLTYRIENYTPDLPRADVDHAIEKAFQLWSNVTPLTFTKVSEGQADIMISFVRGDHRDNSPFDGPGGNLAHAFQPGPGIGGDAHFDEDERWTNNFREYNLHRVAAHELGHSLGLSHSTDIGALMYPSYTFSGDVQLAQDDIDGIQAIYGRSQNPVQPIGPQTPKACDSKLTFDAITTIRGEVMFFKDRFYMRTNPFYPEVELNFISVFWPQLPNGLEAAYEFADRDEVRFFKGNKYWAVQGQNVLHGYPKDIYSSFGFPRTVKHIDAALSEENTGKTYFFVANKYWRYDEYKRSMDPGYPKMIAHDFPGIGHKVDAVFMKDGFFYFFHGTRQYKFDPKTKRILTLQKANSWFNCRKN

[5] = target: Stromelysin-1 (Homo sapiens) (UniProt P08254); assay: Inhibition of matrix metalloprotease-3 (Stromelysin-1)
Sequence of Stromelysin-1 (Homo sapiens) (P08254 100-477 limits assumed): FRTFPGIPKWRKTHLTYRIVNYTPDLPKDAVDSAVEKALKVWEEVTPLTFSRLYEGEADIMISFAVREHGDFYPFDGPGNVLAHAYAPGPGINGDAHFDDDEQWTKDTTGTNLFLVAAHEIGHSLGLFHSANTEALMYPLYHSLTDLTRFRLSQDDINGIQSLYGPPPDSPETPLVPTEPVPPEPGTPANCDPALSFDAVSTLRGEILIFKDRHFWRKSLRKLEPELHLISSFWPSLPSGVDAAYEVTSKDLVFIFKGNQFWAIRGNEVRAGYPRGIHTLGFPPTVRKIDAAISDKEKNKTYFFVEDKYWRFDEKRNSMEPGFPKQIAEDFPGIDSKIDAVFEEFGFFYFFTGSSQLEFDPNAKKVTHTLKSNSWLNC

[6] = target: 72 kDa type IV collagenase (Homo sapiens) (UniProt P08253); assay: Inhibition of matrix metalloprotease-2 (Gel.A)
Sequence of 72 kDa type IV collagenase (Homo sapiens) (P08253 110-660 limits assumed): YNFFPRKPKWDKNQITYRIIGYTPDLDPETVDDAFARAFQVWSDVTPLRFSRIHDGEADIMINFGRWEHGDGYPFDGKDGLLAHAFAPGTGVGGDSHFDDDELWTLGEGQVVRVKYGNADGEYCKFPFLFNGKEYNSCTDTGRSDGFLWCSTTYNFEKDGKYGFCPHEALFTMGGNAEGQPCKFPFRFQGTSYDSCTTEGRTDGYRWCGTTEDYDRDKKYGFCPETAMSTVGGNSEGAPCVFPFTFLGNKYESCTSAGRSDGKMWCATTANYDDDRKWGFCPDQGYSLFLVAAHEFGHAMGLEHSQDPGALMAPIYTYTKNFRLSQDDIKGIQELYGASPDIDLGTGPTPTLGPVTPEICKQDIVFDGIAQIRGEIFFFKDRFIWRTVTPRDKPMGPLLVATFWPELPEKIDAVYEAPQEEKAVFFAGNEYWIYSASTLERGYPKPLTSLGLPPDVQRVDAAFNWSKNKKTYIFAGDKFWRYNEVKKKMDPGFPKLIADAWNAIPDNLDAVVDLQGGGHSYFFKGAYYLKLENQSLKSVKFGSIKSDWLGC

Rattus norvegicus [7] = assay: Compound was tested for inhibition of Tumor Necrosis Factor production in rat at a peroral dose of 2.5 mg/kg; format: functional; conditions: route oral
Rattus norvegicus [8] = assay: Compound was tested for inhibition of Tumor Necrosis Factor production in rat at a peroral dose of 5 mg/kg; format: functional; conditions: route oral
Rattus norvegicus [9] = assay: Compound was tested for inhibition of Tumor Necrosis Factor production in rat at a peroral dose of 10 mg/kg; format: functional; conditions: route oral
[10] = Maximum concentration value was evaluated for high sustained blood levels in rat after 1 hr of administration; format: ADME, organism-based
[11] = Maximum concentration value was evaluated for high sustained blood levels in rat after 2 hr of administration; format: ADME, organism-based

| SMILES | Cmax [1] [ng/mL] | AUC (Rattus norvegicus [2]) [ng·h/mL] | Activity [3] [nM] | Activity [4] [nM] | Activity [5] [nM] | Activity [6] [nM] | inhibition in vivo at 2.5 mg/kg (Rattus norvegicus [7]) [%] | inhibition in vivo at 5 mg/kg (Rattus norvegicus [8]) [%] | inhibition in vivo at 10 mg/kg (Rattus norvegicus [9]) [%] | Cmax [10] [ng/mL] | Cmax [11] [ng/mL] |
| --- | --- | --- | --- | --- | --- | --- | --- | --- | --- | --- | --- |
| CNC(=O)[C@@H](NC(=O)[C@H](CC(C)C)[C@@H](C(=O)NO)C(C)C)C(C)(C)C | 376 | 895 | 5 | 1 | 40 | 1 | – | – | – | – | – |
| CC(C)C[C@@H](C(=O)N[C@H](C(=O)Nc1ccccn1)C(C)(C)C)[C@@H](C(=O)NO)C1CCC(C)CC1 (stereo not given in full) | – | – | 3 | 5 | 20 | 40 | – | – | – | – | – |
| CNC(=O)[C@@H](NC(=O)[C@H](CC(C)C)[C@@H](C(=O)NO)C1CCC(C)CC1)C(C)(C)C (stereo not given in full) | – | – | 7 | 4 | 40 | 9 | – | – | – | – | – |
| CNC(=O)[C@@H](NC(=O)[C@H](CC(C)C)[C@@H](C(=O)NO)C1CCN(C)CC1)C(C)(C)C | – | – | 200 | 30 | 500 | 3 | – | – | – | – | – |
| CNC(=O)[C@@H](NC(=O)[C@H](CC(C)C)[C@@H](C(=O)NO)C1CCSC1)C(C)(C)C (stereo not given in full) | – | – | 4 | 5 | 40 | 5 | – | – | – | – | – |
| CNC(=O)[C@@H](NC(=O)C(CC(C)C)C(C(=O)NO)C1CC1)C(C)(C)C (single isomer, unassigned) | 106 | 1020 | 200 | 20 | 300 | 100 | – | – | – | – | – |
| CNC(=O)[C@@H](NC(=O)C(CC(C)C)C(O)C(=O)NO)C(C)(C)C (single isomer, unassigned) | – | – | 20 | 5 | 200 | 6 | 11 | 50 | 69 | – | – |
| CNC(=O)[C@@H](NC(=O)C(CC(C)C)C(C(=O)NO)C1CCCC1)C(C)(C)C (single isomer, unassigned) | – | 2090 | 20 | 4 | 30 | 3 | 94 | 92 | 98 | 336 | – |
| CNC(=O)[C@@H](NC(=O)C(CC(C)C)C(C(=O)NO)C1CCCCC1)C(C)(C)C (single isomer, unassigned) | – | 155 | 20 | 4 | 30 | 10 | – | – | – | – | 9.75 |
| CC(C)CC(C(=O)N[C@H](C(=O)Nc1ccccn1)C(C)(C)C)C(C(=O)NO)C1CCCCC1 (single isomer, unassigned) | – | – | – | 4 | 20 | 10 | – | – | – | – | – |
| CNC(=O)[C@@H](NC(=O)C(CC(C)C)C(C(=O)NO)C1CCC(C(C)(C)C)CC1)C(C)(C)C (single isomer, unassigned) | – | – | 50 | 40 | 100 | 30 | – | – | – | – | – |
| CNC(=O)[C@@H](NC(=O)C(CC(C)C)C(C(=O)NO)C1CCC1)C(C)(C)C (single isomer, unassigned) | – | – | 20 | 3 | 50 | 2 | – | – | – | – | – |
| CC(C)CC(C(=O)N[C@H](C(=O)Nc1ccccn1)C(C)(C)C)C(C(=O)NO)C1CCCC1 (single isomer, unassigned; 12j) [listing 1 of 2 here] | – | 899 | – | – | – | – | – | – | – | – | 70.7 |
| CC(C)CC(C(=O)N[C@H](C(=O)Nc1ccccn1)C(C)(C)C)C(C(=O)NO)C1CCCC1 (single isomer, unassigned; 12j) [listing 2 of 2 here] | – | – | 3 | 3 | 20 | 30 | – | – | – | – | – |
| CC(C)CC(C(=O)N[C@H](C(=O)Nc1ccccn1)C(C)(C)C)C(C(=O)NO)C1CCCC1 (single isomer, unassigned; 12m) | – | – | – | 20 | 50 | 100 | – | – | – | – | – |
